Data published in ChEMBL document CHEMBL5523751, “Discovery of Novel Diaryl-Substituted Fused Heterocycles Targeting Katanin and Tubulin with Potent Antitumor and Antimultidrug Resistance Efficacy” (J Med Chem, 2024).
Calls of active or inactive are those of the source. The rule behind the calls is not given here.

Columns and labels:
[1] = Acute toxicity in ICR mouse assessed as survival rate at 300 mg/kg, ip measured after 14 days relative to control; assay type: organism-based; conditions: in vivo, time 14 day
[2] = Acute toxicity in ICR mouse assessed as survival rate at 100 mg/kg, ip measured after 14 days relative to control; assay type: organism-based; conditions: in vivo, time 14 day
MCF7 [3] = assay: Upregulation of CDK1 expression level in human MCF7 cells at 1 to 10 nM by Western blot analysis; assay type: functional, cell-based; conditions: dose 1-10 nM
[4] = Antiproliferative activity against human CDDP-resistant A549 cell assessed as inhibition of cell growth measured after 48 hrs by MTT assay; assay type: functional, cell-based
[5] = Toxicity in Balb/C nude mouse assessed as abnormalities in kidney at 7.5 to 15 mg/kg, ip measured after 14 days by H and E staining based analysis; assay type: organism-based; conditions: in vivo, 336 h, dose 7.5-15 mg/kg, time 14 day
HCT-116 = assay: Antiproliferative activity against human HCT-116 cells assessed as inhibition of cell growth measured after 48 hrs by MTT assay; assay type: functional, cell-based; conditions: HCT-116, 48 h
MCF7 [6] = assay: Induction of apoptosis in human MCF7 cells assessed as necrotic cells at 10 nM measured after 48 hrs by annexin-FITC and propidium iodide staining based flow cytometry analysis (reference value: 0.18%); assay type: functional
[7] = MRT (0 to t) in mouse at 15 mg/kg, po measured upto 24 hrs by LC-MS/MS analysis; assay type: ADME, organism-based; conditions: in vivo
[8] = Acute toxicity in ICR mouse assessed as survival rate at 200 mg/kg, ip measured after 14 days relative to control; assay type: organism-based; conditions: in vivo, time 14 day
MCF7 [9] = assay: Induction of apoptosis in human MCF7 cells assessed as necrotic cells at 20 nM measured after 48 hrs by annexin-FITC and propidium iodide staining based flow cytometry analysis (reference value: 0.18%); assay type: functional
[10] = Cmax in mouse at 3 mg/kg, iv measured upto 24 hrs by LC-MS/MS analysis; assay type: ADME, organism-based; conditions: in vivo
[11] = Toxicity in Balb/C nude mouse xenografted with A549/Taxol assessed as changes in blood routine parameters at 15 mg/kg, ip measured after 14 days by biochemical assay; assay type: organism-based, A549/TR; conditions: in vivo, 336 h, time 14 day
[12] = Tmax in mouse at 3 mg/kg, iv measured upto 24 hrs by LC-MS/MS analysis; assay type: ADME, organism-based; conditions: in vivo
[13] = Antiproliferative activity against cisplatin resistant human A2780/CDDP cells assessed as inhibition of cell growth measured after 48 hrs by MTT assay; assay type: functional, cell-based
[14] = Toxicity in Balb/C nude mouse xenografted with A549/Taxol assessed as effect on heart at 15 mg/kg, ip measured after 14 days by H and E staining based analysis; assay type: organism-based, A549/TR; conditions: in vivo, 336 h, time 14 day
HUVEC [15] = assay: Anti-angiogenesis activity in human HUVEC cells assessed as disruption of capillary tube formation at 30 nM incubated for 6 hrs by inverted microscopic analysis; assay type: functional, cell-based
HT-29 = assay: Antiproliferative activity against human HT-29 cells assessed as inhibition of cell growth measured after 48 hrs by MTT assay; assay type: functional, cell-based; conditions: HT-29, 48 h
[16] = Toxicity in Balb/C nude mouse xenografted with A549/Taxol assessed as effect on body weight at 15 mg/kg, ip measured after 14 days by H and E staining based analysis; assay type: organism-based, A549/TR; conditions: in vivo, 336 h, time 14 day
[17] = AUC (0 to t) in mouse at 15 mg/kg, po measured upto 24 hrs by LC-MS/MS analysis; assay type: ADME, organism-based; conditions: in vivo
HUVEC [18] = assay: Anti-angiogenesis activity in human HUVEC cells assessed as disruption of capillary tube formation at 60 nM incubated for 6 hrs by inverted microscopic analysis relative to control; assay type: functional
DU-145 = assay: Antiproliferative activity against human DU-145 assessed as inhibition of cell growth measured after 48 hrs by MTT assay; assay type: functional, cell-based; conditions: DU-145, 48 h
[19] = Acute toxicity in ICR mouse assessed as survival rate at 50 mg/kg, ip measured after 14 days relative to control; assay type: organism-based; conditions: in vivo, time 14 day
[20] = Toxicity in Balb/C nude mouse assessed as abnormalities in lung at 7.5 to 15 mg/kg, ip measured after 14 days by H and E staining based analysis; assay type: organism-based; conditions: in vivo, 336 h, dose 7.5-15 mg/kg, time 14 day
[21] = Acute toxicity in ICR mouse assessed as animal death at 150 mg/kg, ip measured after 3 to 14 days; assay type: organism-based; conditions: in vivo, time 3-14 day
[22] = Resistance index, ratio of IC50 for antiproliferative activity against human CDDP-resistant A549 cell to IC50 for antiproliferative activity against human A549 cells; assay type: functional
MDA-MB-231 [23] = assay: Downregulation of MMP-9 expression in human MDA-MB-231 cells at 5 to 40 nM by Western blot analysis; assay type: functional, cell-based; conditions: dose 5-40 nM
[24] = MRT (0 to infinity) in mouse at 15 mg/kg, po measured upto 24 hrs by LC-MS/MS analysis; assay type: ADME, organism-based; conditions: in vivo
MCF7 [25] = assay: Induction of apoptosis in human MCF7 cells assessed as early apoptotic cells at 10 nM measured after 48 hrs by annexin-FITC and propidium iodide staining based flow cytometry analysis (reference value: 1.20%); assay type: functional
MDA-MB-231 [26] = assay: Downregulation of vimentin expression in human MDA-MB-231 cells at 5 to 40 nM by Western blot analysis; assay type: functional, cell-based; conditions: dose 5-40 nM
[27] = Resistance index, ratio of IC50 for antiproliferative activity against human A549/Taxol cells to IC50 for antiproliferative activity against human A549 cells; assay type: functional
[28] = MRT (0 to t) in mouse at 3 mg/kg, iv measured upto 24 hrs by LC-MS/MS analysis; assay type: ADME, organism-based; conditions: in vivo
[29] = AUC (0 to t) in mouse at 3 mg/kg, iv measured upto 24 hrs by LC-MS/MS analysis; assay type: ADME, organism-based; conditions: in vivo
MDA-MB-231 [30] = assay: Antitumor activity against human MDA-MB-231 cells xenografted in BALB/c nude mouse model assessed as inhibition of tumor growth volume administered as IP dose measured after 14 days; assay type: functional; conditions: dose 7.5-15 mg/kg, time 14.0 day
[31] = Cmax in mouse at 15 mg/kg, po measured upto 24 hrs by LC-MS/MS analysis; assay type: ADME, organism-based; conditions: in vivo
Tubulin (Homo sapiens) = Tubulin (Homo sapiens) (UniProt P68371+Q9H4B7+P0DPH7+P68366+Q13509+Q71U36+P04350+Q3ZCM7+P07437+P68363+Q9BQE3+Q6PEY2+Q13885+Q9BVA1+Q9BUF5); assay: Inhibition of microtubule assembly in human MCF7 cells assessed as decrease in density at 1 to 10 nM incubated for 24 hrs by immunofluorescence assay; assay type: cell-based; conditions: dose 1-10 nM
[32] = Resistance index, ratio of IC50 for antiproliferative activity against paclitaxel resistant human A2780/Taxol cells to IC50 for antiproliferative activity against human A2780 cells; assay type: functional
MCF7 [33] = assay: Induction of apoptosis in human MCF7 cells assessed as upregulation of PARP-1 protein level by Western blot analysis; assay type: functional, cell-based; conditions: dose 10-40 nM
[34] = Half life in mouse at 15 mg/kg, po measured upto 24 hrs by LC-MS/MS analysis; assay type: ADME, organism-based; conditions: in vivo
[35] = Toxicity in Balb/C nude mouse xenografted with A549/Taxol assessed as effect on white blood cells count at 15 mg/kg, ip measured after 14 days by biochemical assay; assay type: organism-based, A549/TR; conditions: in vivo, 336 h, time 14 day
[36] = Toxicity in Balb/C nude mouse assessed as drug tolerance at 15 mg/kg, ip measured upto 2 weeks; assay type: organism-based; conditions: in vivo, 336 h

## COc1cc(-n2cnc3ccc(-c4ccc(C)c(N)c4)nc32)cc(OC)c1OC
[1]
  survival at 336 h: 0%
[2]
  survival at 336 h: 80%
MCF7 [3]
  Activity: Active
[4]
  IC50: 2 nM
[5]
  Activity: Non-Toxic
HCT-116
  IC50: 3 nM
MCF7 [6]
  Activity: 0.41%
[7]
  MRT last at 24 h: 1.83 h
[8]
  survival at 336 h: 40%
MCF7 [9]
  Activity: 0.62%
[10]
  Cmax: 1650 ng/mL
[11]
  Activity: Toxic
[12]
  Tmax: 4.8 min
[13]
  IC50: 4.2 nM
[14]
  Activity: Non-Toxic
HUVEC [15]
  Activity: Active
HT-29
  IC50: 11 nM
[16]
  Activity: Non-Toxic
[17]
  AUC(0-t) at 24 h: 1240 ng·h/mL
HUVEC [18]
  Activity: 100%
DU-145
  IC50: 4 nM
[19]
  survival at 336 h: 100%
[20]
  Activity: Non-Toxic
[21]
  Activity: Non-Toxic
[22]
  Ratio IC50: 1.81
MDA-MB-231 [23]
  Activity: Active
[24]
  MRT inf: 2.47 h
MCF7 [25]
  Activity: 29.59%
MDA-MB-231 [26]
  Activity: Active
[27]
  Ratio IC50: 1.45
[28]
  MRT last at 24 h: 0.49 h
[29]
  AUC(0-t) at 24 h: 666 ng·h/mL
MDA-MB-231 [30]
  Activity: Dose-Dependent Effect
[31]
  Cmax: 1200 ng/mL
Tubulin (Homo sapiens)
  inhibition: Active
[32]
  Ratio IC50: 1.54
MCF7 [33]
  Activity: Dose-Dependent Effect
[34]
  half-life: 1.92 h
[35]
  Activity: Non-Toxic
[36]
  Activity: Non-Toxic
